Reference: patent US20240409557A1, “5,6-FUSED AND 6,6-FUSED BICYCLIC ALCOHOLS AND ETHERS AND COMPOSITIONS FOR USE AS 15-PROSTAGLANDIN DEHYDROGENASE MODULATORS” (AMGEN INC., priority 2023, published 2024)

What was measured:
[1] = biological target: T1, human recombinant 15-PGDH (Homo sapiens, UniProt P15428); test: Recombinant 15-PGDH enzymatic inhibition assay (PGDH-Lumi, NADH signal); type: biochemical; conditions: recombinant 15-PGDH; 15 min pre-incubation, 60 min reaction with PGE2 and NAD+, NADH signal
T1 sequence (P15428 1-266): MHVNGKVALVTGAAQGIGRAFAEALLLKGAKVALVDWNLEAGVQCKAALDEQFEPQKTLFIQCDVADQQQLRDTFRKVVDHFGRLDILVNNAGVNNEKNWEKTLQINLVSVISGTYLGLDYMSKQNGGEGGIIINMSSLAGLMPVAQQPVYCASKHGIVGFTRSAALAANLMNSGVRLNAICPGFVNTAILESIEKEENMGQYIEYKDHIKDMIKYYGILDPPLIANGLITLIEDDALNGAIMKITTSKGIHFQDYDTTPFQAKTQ
Method in brief: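 Buffer 50 mM Tris pH 7.5 with 0.01% Tween-20 and […]; compound, 22 two-fold dilutions, pre-incubated with enzyme 15 min before substrate.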

[2] = biological target: T2, 15-PGDH in A549 cells (Homo sapiens, UniProt P15428); test: A549 cellular 15-PGDH assay (PGE2 accumulation, HTRF); type: cell-based; conditions: interleukin-stimulated, inhibitor 24 hrs, PGE2 by competitive HTRF, read-out: A549 Cell Assay IC50
T2 construct: endogenous in cells; host or cells: A549
T2 sequence (P15428 1-266): T1 sequence (P15428 1-266)
Source text: This assay was used for the quantification of IL-13 induced Native Prostaglandin E2 (PGE2) produced by A549 cells (epithelial cells from lung carcinoma) in cell culture supernatants. […] PGE2 was detected in a competitive HTRF assay by using anti PGE2 antibody labeled with Europium cryptate, and PGE2 labeled with […]. The PGE2 present in the sample competes with the binding between the two HTRF detection solutions (reagents) and thereby prevents FRET from occurring. The specific signal is inversely proportional to the PGE2 concentration. From this binding data, IC50 values were calculated.

Structure (SMILES) | IC50 [1] | IC50 [2]
CO[C@H]1C[C@@H]([C@H](O)c2cc3ccc(-c4cnc5nn(C)cc5c4)nc3s2)C1 (single isomer, unassigned) [Compound B88SC] | 10.1 nM | 0.522 nM
CO[C@H]1C[C@H]([C@H](O)c2cc3ccc(-c4cnc5nn(C)cc5c4)nc3s2)C1 (single isomer, unassigned) [Compound B88ST] | 1.12 nM | 0.504 nM
Cc1c([C@H](O)C2CCOCC2)sc2nc(-c3cnc4c(c3)nnn4C)ccc12 (single isomer, unassigned) [Compound B89R] | 1.77 nM | 4.82 nM
Cc1c([C@@H](O)C2CCOCC2)sc2nc(-c3cnc4c(c3)nnn4C)ccc12 (single isomer, unassigned) [Compound B89S] | 922 nM | 375 nM
Cc1c([C@@H](O)C2CCOCC2)sc2nc(-c3cnc4nn(C)cc4c3)ccc12 (single isomer, unassigned) [Compound B90S] | 488 nM | 237 nM
Cn1cc2cc(-c3ccc4cc([C@@H](O)C56CC(C(F)(F)F)(C5)C6)sc4n3)cnc2n1 (single isomer, unassigned) [Compound B91S] | 34.9 nM | 2.37 nM
Cc1c([C@@H](CO)C2CC(F)(F)C2)sc2nc(-c3cnc4nn(C)cc4c3)ccc12 (single isomer, unassigned) [Compound B93R] | 174 nM | 245 nM
Cc1c([C@H](CO)C2CC(F)(F)C2)sc2nc(-c3cnc4nn(C)cc4c3)ccc12 (single isomer, unassigned) [Compound B93S] | 2.64 nM | 14.2 nM
Cn1cc2cc(-c3ccc4cc([C@@H](O)[C@@H]5CCC5(F)F)sc4n3)cnc2n1 (single isomer, unassigned) [Compound B94SS] | 1.23 nM | 3.63 nM
Cn1cc2cc(-c3ccc4c(N)c([C@H](O)C5CC(F)(F)C5)sc4n3)cnc2n1 (single isomer, unassigned) [Compound B95R] | 1.21 nM | 1.64 nM
Cn1cc2cc(-c3ccc4c(N)c([C@@H](O)C5CC(F)(F)C5)sc4n3)cnc2n1 (single isomer, unassigned) [Compound B95S] | 6.43 nM | 9.46 nM

Compounds with a lower IC50 [1], results first:

IC50 [1] | IC50 [2] | Structure (SMILES)
0.952 nM | 0.857 nM | Cc1c([C@H](O)C2CCOCC2)sc2nc(-c3cnc4nn(C)cc4c3)ccc12 (single isomer, unassigned) [Compound B90R]
0.64 nM | 2.64 nM | Cn1cc2cc(-c3ccc4cc([C@@H](O)[C@H]5CCC5(F)F)sc4n3)cnc2n1 (single isomer, unassigned) [Compound B94SR]
0.544 nM | 1.09 nM | Cn1cc2cc(-c3ccc4cc([C@H](O)C56CC(C(F)(F)F)(C5)C6)sc4n3)cnc2n1 (single isomer, unassigned) [Compound B91R]
0.524 nM | 0.511 nM | CO[C@H]1C[C@H]([C@@H](O)c2cc3ccc(-c4cnc5nn(C)cc5c4)nc3s2)C1 (single isomer, unassigned) [Compound B88RT]
0.505 nM | 0.438 nM | CO[C@H]1C[C@@H]([C@@H](O)c2cc3ccc(-c4cnc5nn(C)cc5c4)nc3s2)C1 (single isomer, unassigned) [Compound B88RC]
0.423 nM | 0.18 nM | Cn1cc2cc(-c3ccc4cc([C@]5(O)C[C@]6(CCO6)C5)sc4n3)cnc2n1 (single isomer, unassigned) [Compound C56C, cis-6-(6-(2-methyl-2H-pyrazolo[3,4-b]pyridin-5-yl)thieno[2,3-b]pyridin-2-yl)-1-oxaspiro[3.3]heptan-6-ol]
0.34 nM | 0.661 nM | Cn1cc2cc(-c3ccc4cc([C@H](O)[C@H]5CCC5(F)F)sc4n3)cnc2n1 (single isomer, unassigned) [Compound B94RR]
0.325 nM | 0.657 nM | Cn1cc2cc(-c3ccc4cc([C@H](O)[C@@H]5CCC5(F)F)sc4n3)cnc2n1 (single isomer, unassigned) [Compound B94RS]
